Patent publication EP0831835B1, “TREATING ANOREXIA” (ELI LILLY AND COMPANY, priority 1995, dated 1996)

Experiments:
[1] = detection of radiolabelled compound in saliva; format: in vivo
Method: For example, in the treatment of adult humans, dosages of from about 0.25 to 50 mg, preferably from 1 to 30 mg, and most preferably 1 to 20 mg per day may be used. A once a day dosage is normally sufficient, although divided doses may be administered. For treatment of cognitive dysfunction, a dose range of from 1 to 30 mg, preferably 1 to 20 mg per day is suitable.

human patients = test: double-blind multicenter clinical trial versus placebo; format: in vivo; settings: human patients randomized to compound or placebo
human subjects = test: double blind multicenter clinical trial versus haloperidol; format: in vivo; settings: 1,996 human subjects, 5-20 mg/day, 6 weeks
Excerpt: Another double blind multicenter clinical trial was completed using 1,996 human subjects. […] The study continued for 6 weeks, with possible extensions.

dogs = test: animal studies in dogs (weight); format: in vivo
rodents = test: animal studies in rodents (food intake / weight); format: in vivo, Male Sprague Dawley CD rats; settings: many such animals
Method: Male Sprague Dawley CD rats (Charles River, Wilmington, Mass.) are individually housed in cages with ad libitum access to Animal Chow and tap water. Temperature is maintained at approximately 21° C. Rats are adapted to vivarium conditions for at least a week before tests begin.
At the start of the experiments, the rats are weighed. […] Tests are conducted every 3-4 days. Food intake (± 0.1 g) is recorded hourly for the 5 h after intubation and after 24 h.

5-HT1C receptor = target: T1, 5-HT1C receptor (Homo sapiens, UniProt P28335); test: pharmacological studies, activity at 5-HT1C receptor
T1 sequence (P28335 33-458): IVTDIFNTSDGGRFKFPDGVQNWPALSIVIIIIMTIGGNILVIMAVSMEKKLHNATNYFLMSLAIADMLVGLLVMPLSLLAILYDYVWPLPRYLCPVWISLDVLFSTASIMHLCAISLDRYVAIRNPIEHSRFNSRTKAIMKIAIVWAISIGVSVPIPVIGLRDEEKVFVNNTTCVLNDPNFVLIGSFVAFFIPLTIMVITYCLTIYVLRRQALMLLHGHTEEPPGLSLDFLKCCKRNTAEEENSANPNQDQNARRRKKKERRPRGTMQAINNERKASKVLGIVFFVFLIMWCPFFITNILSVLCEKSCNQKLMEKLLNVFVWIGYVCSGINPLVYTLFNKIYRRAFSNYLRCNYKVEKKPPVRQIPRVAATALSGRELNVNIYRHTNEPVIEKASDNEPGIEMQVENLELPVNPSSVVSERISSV

[2] = tested on: muscarinic cholinergic receptor; settings: results of pharmacological studies

For `Cc1cc2c(s1)Nc1ccccc1N=C2N1CCN(C)CC1` [2-methyl-4-(4-methyl-1-piperazinyl)-10H-thieno[2,3-b][1,5]benzodiazepine], the detection in saliva [1] was “can be detected in the saliva”, the “usefulness for the treatment of anorexia” value (human patients) was “can be useful for the treatment of anorexia” and the appetite (human subjects) was “increase in appetite”. The weight gain (human subjects) was “statistically significant dose dependent weight gain”, the “effectiveness for treatment of clinically significant decrease in appetite” value (dogs) was “would not be effective” and the weight change (dogs; many such animals) was “lost weight”. For the same compound, the weight change (rodents) was “lost weight”, the “activity at the 5-HT1C receptor” value (5-HT1C receptor) was “active” and the “muscarinic cholinergic receptor activity” value [2] was “has muscarinic cholinergic receptor activity”.
